Test results: US20210315893A1 (Galapagos NV, priority 2017, published 2021)

Columns and labels:
HFL-1 cells [1] = assay: IL8 assay in the presence of Human Serum Albumin; conditions: HFL1, read-out: HSA IL8 EC50
[2] = system: bleomycin induced pulmonary fibrosis in mice; assay: Therapeutic bleomycin induced pulmonary fibrosis 21-day mice model; format: in vivo; conditions: 10 mg/kg BID
Method: The aim of the study is to test the efficacy of a test compound at three different doses in a 21-day model of bleomycin induced pulmonary fibrosis in mice.
(§1) This study is carried out on C57BL/6N male mice, supplied by Charles River, Italy, which are acclimatized for at least 5 days in an environment maintained at 22° C., at 55% relative humidity, with 15-20 air changes per h under light cycles of 12 h. Mice pelleted food and water are provided ad libitum.
The solvent for the test solutions is prepared by adding 0.5 g of hydroxyethylcellulose (Natrosol) into 500 mL Aqua distillate (0.1%) under continuous stirring without heating for 5 h on a magnetic stirrer.
Fresh Nintedanib formulation is prepared daily in 0.1% Natrosol formulations to a final concentration of 5 mg/mL. Before dosing, animals are weighed and the Nintedanib amount administered is adjusted accordingly to individual weights corresponding to 10 mL/kg body weight, once daily p.o.,
Finally, test compound solutions are prepared by dissolving the suitable amount of said test compound in PEG 400 (20% of the final volume) then MC 0.5% (80% of the final volume) to reach final concentrations of 1 mg/mL, 0.3 mg/mL and 0.1 mg/mL, thus yielding compound for a doses of 10 mg/kg, 3 mg/kg and 1 mg/kg. […]
(§2) Pulmonary histological changes are assessed using Matsuse modification of Ashcroft score (Ashcroft et al., 1988; Matsuse et al., 1999). […]

[3] = target: T1, human GPCR sphingosine 1-phosphate receptor 1 (Homo sapiens, UniProt P21453); assay: S1PR1 selectivity Ca2+ flux assay (antagonist readout); format: cell-based; conditions: antagonist readout, CHO cells overexpressing human S1PR1 and Gq, S1P at EC80 (6 nM); read-out: S1P1 EC50 (nM), S1P1 antagonist EC50
T1 construct: host or cells: CHO
T1 sequence (P21453 whole entry): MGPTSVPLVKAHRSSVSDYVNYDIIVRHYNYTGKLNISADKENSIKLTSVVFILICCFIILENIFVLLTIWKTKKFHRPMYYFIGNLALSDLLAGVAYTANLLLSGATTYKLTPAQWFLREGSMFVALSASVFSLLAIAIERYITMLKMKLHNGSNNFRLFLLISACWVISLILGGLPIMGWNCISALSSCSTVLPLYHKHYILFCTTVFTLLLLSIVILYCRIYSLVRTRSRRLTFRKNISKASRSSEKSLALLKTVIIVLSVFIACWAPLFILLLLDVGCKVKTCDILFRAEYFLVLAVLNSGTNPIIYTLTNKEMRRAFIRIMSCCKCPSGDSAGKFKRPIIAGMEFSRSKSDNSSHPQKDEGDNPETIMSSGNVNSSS
Method in brief: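 CHO cells stably overexpressing human S1PR1, starved 1 h in 0.1% FAF BSA medium, then Fluo 8 dye-loaded. Compound added, then after 15 min at 37 °C, S1P-evoked Ca2+ flux recorded. Maximal signal/background ratio normalized to controls as % inhibition; IC50 from four-parameter logistic fit.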

[4] = system: bleomycin induced pulmonary fibrosis in mice; assay: Prophylactic bleomycin induced pulmonary fibrosis 14-day mice model; format: in vivo; conditions: 10 mg/kg BID
Method: The aim of the study is totest the efficacy of atest compound at three different doses ina 14-day model of bleomycin induced pulmonary fibrosis in mice.
as §1, with “[…]” for “C57BL/6N”
The solvent for the test solutions is prepared by adding 0.5 g of hydroxyethylcellulose (Natrosol) into 500 mL Aqua distillate (0.1%) under continuous stirring without heating for 5 h on a magnetic stirrer. Anesthetic solution is prepared by adding 1 mL of Narketan (Narketan 10, Vetoquinol, Bern, Switzerland, 03605877535982) and 0.5 mL of Rompun (Rompun, 2%. Bayer, Leverkusen, Germany) into 9 mL saline. The resulting solution is administered at 10 mL/kg.
Prior to i.n administration, mice are anesthetized i.p. with the anesthetic solution described above.
Fresh pirfenidone formulation is prepared daily in 0.1% Natrosol formulations to a final concentration of 5 mg/mL. […]
as §2

HFL-1 cells [5] = assay: IL-8 production assay (S1P induced IL-8); format: cell-based; conditions: Homo sapiens, HFL1; S1P (1 μM) induced IL-8 in HFL-1 cells, starvation medium without HSA; read-out: IL8 EC50
Method in brief: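 HFL-1 human fetal lung fibroblasts were starved in F12K/1% FBS, then given compound for 1 h (10-point, 1/3 dilution, 30 μM top, 0.3% DMSO final). S1P was added at 1 μM final for 16–24 h at 37 °C, and secreted IL-8 in supernatant quantified by ELISA.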

Structure (SMILES): O=C(O)Cn1nc(Cc2nc3cc(Cl)c(OCC4CC4)cc3[nH]2)c2ccccc2c1=O [Compound 115, 2-[4-[[5-chloro-6-(cyclopropylmethoxy)-1H-benzimidazol-2-yl]methyl]-1-oxo-phthalazin-2-yl]acetic acid]
- EC50 (HFL-1 cells [1]): 51.8 nM
- Ashcroft score difference [2]: statistically significant Ashcroft score difference
- EC50 [3]: 3620 nM
- Ashcroft score difference [4]: statistically significant Ashcroft score difference
- EC50 (HFL-1 cells [5]): 5.73 nM
